In ChEMBL document CHEMBL5338732, “Perspective for Discovery of Small Molecule IL-6 Inhibitors through Study of Structure-Activity Relationships and Molecular Docking” (J Med Chem, 2023) one finds IC50 data, which are given here for four molecules.

Assay type in all cases: functional, cell-based
Assay [1] has as its system MH60. Kind of assay: Cytotoxicity in mouse MH60 cells assessed as inhibition of recombinant human IL-6-induced growth incubated for 72 hrs by tetrazolium method. Conditions: MH60, 72 h.
In assay [2] the test system is MDA-MB-435. Kind of assay: Cytotoxicity against human MDA-MB-435 cells assessed as reduction in cell growth incubated for 72 hrs by MTT assay. Conditions: MDA-MB-435, 72 h.
Assay [3] in a line: Cytotoxicity against human p53HCT116 cells assessed as inhibition of cell growth incubated for 72 hrs by MTT assay. Conditions: p53HCT116, 72 h.
The nature of assay [4]: Cytotoxicity against human HCT116-p53-null cells assessed as inhibition of cell growth incubated for 72 hrs by MTT assay. (In general: Tetrazolium assays rely on reduction of a dye to a coloured formazan, in cell work by metabolically active cells.)

For the molecule `Cc1c(-c2ccc(O)cc2)n(Cc2ccc(OCCN3CCCCCC3)cc2)c2ccc(O)cc12` [BAZEDOXIFENE], in assay [1], the 50% inhibitory concentration (IC50) (in general, the midpoint of a concentration-inhibition curve) was 3800 nM.
As for `O=C(NNc1nc2cc(F)ccc2n2cccc12)c1cnccn1`, the concentration for half-maximal inhibition (IC50) in assay [2], in assay [3] and in assay [4] was 400 nM throughout.
As to `CCCCC1=C(C)C(=O)[C@](C)(CN2c3ccccc3[C@]3(O)CCO[C@H]23)C1=O`, the IC50 in assay [1] was determined as 30000 nM.
For `CCCCC1=C(C)C(=O)[C@@](C)(CN2c3ccccc3[C@]3(O)CCO[C@H]23)C1=O`, in assay [1], the IC50 came to 8000 nM.
